Data on 14 compounds can be found in patent US9428477B2, “Trans-2-decenoic acid derivative and drug containing same” (NIPPON ZOKI PHARMACEUTICAL CO., LTD., priority 2012, dated 2016).

Molecules are shown by their SMILES.

One data set concerns MIA-induced OA rats. Kind of data set: Analgesic action against osteoarthritis model rats (MIA-induced OA), von Frey test. In kind it is in vivo, rat. The conditions noted are these: intraperitoneally, single dose of 500 μg/kg, hyperalgesia of OA induced by MIA. The procedure:
(§1) The rats of the above (1) were placed in a transparent acrylic cage with a wire-meshed floor and habituated for about three minutes, and the 50% reaction threshold values to the mechanical stimulus of right hind limb were measured before administration of the test drug and after 1 and 5 hours from the initiation of the administration.
The measurement was conducted using von Frey filaments (manufactured by North Coast Medical Inc.) in accordance with the methods of Chaplan, et al. (Journal of Neuroscience Methods, 53(1), 55-63, 1994) and Dixon, et al. (Annual Review of Pharmacology and Toxicology, 20, 441-462, 1980). […] The case where the rat escaped at the instance of removing the filament was also called positive. When the positive reaction was found, stimulus was applied similarly with a filament of one rank weaker, and in the absence of the reaction, stimulus was similarly applied with a filament of one rank stronger, and a point where the reaction changed from negative to positive or from positive to negative was called the first two reactions. Subsequently, stimuli were applied for continuously four times by the same up-down method. A 50% reaction threshold value to the mechanical stimulus was measured using the reaction to the six stimuli in total and then (mean value)±(standard error) for each group was calculated. Incidentally, when stimulus reached to a load of 15.0 g without positive reaction, or when positive reaction continued to a load of 0.4 g, 15.0 g or 0.25 g was adopted as each of 50% reaction threshold values. With regard to the higher 50% reaction threshold value between the 50% threshold values after 1 hour and 5 hours from administration of a test drug, a recovery rate (%) of the 50% reaction threshold value was calculated by the following expression in which 15 was taken as a normal threshold value. […]
A 50% reaction threshold value to the mechanical stimulus of male Wistar rats of six weeks age was measured (the measurement method will be mentioned later), and a normal control group was selected. […]
With regard to the male Wistar rats of six weeks age used as experimental animals except the normal control group, their 50% reaction threshold values to the mechanical stimulus (the measuring method will be mentioned later) and body weights were measured after 24 days from the administration of MIA mentioned in (1) and then 3 groups, i.e. a normal control group, an onset control group, and a test drug-administered group, six rats per group, were organized. […]

Data set [1] relates to rats with paclitaxel-induced peripheral nerve disorder. Kind of data set: Rat peripheral nerve disorder induced by paclitaxel, von Frey test. In kind it is in vivo. The conditions noted are these: ip, test drug intraperitoneally, single dose, higher of values 1 and 5 hours after administration, mechanical stimulus of right hind limb, normal threshold 15, read-out: Recovery Rate of 50% Reaction Threshold Value. The procedure: The effects of the compounds of the present invention were evaluated for a peripheral nerve disorder which is a side effect induced by the administration of an anti-cancer agent paclitaxel, such as hyperesthesia including allodynia induced by mechanical stimuli, which is a severe pain induced by such tactile stimuli which usually cause no pains. The compound of the present invention was intraperitoneally administered to rats as a test drug to conduct a von Frey test.
Male SD rats of six weeks age (six rats per group) were used as experimental animals, and paclitaxel (2 mg/kg) was intraperitoneally administered every other day for four times in total to prepare rats with paclitaxel-induced peripheral nerve disorder. During the period of 18 to 25 days or during the period of 20 to 27 days after the initiation of paclitaxel administration, the test drug was intraperitoneally administered in a single dose of […], and the following von Frey test was conducted.
as §1
The measurement was conducted using von Frey filaments (manufactured by North Coast Medical Inc.) in accordance with the methods of Chaplan, et al. (Journal of Neuroscience Methods, 53(1), 55-63, 1994) and Dixon, et al. (Annual Review of Pharmacology and Toxicology, 20, 441-462, 1980). […] The case where the rat escaped at the instance of removing the filament was also called positive. When the positive reaction was found, stimulus was applied similarly with a filament of one rank weaker, and in the absence of the reaction, stimulus was similarly applied with a filament of one rank stronger, and a point where the reaction changed from negative to positive or from positive to negative was called the first two reactions. Subsequently, stimuli were applied for continuously four times by the same up-down method. A 50% reaction threshold value to the mechanical stimulus was measured using the reaction to the six stimuli in total and then (mean value)±(standard error) for each group was calculated. Incidentally, when stimulus reached to a load of 15.0 g without positive reaction, or when positive reaction continued to a load of 0.4 g, 15.0 g or 0.25 g was adopted as each of 50% reaction threshold values. With regard to the higher 50% reaction threshold value between the 50% threshold values after 1 hour and 5 hours from administration of a test drug, a recovery rate (%) of the 50% reaction threshold value was calculated by the following expression in which 15 was taken as a normal threshold value.
Recovery rate (%) of 50% reaction threshold value=[(50% reaction threshold value after 1 hour or 5 hours from administration of test drug)−(50% reaction threshold value before administration of test drug)]/[(Normal threshold value)−(50% reaction threshold value before administration of test drug)]×100

The next data set deals with MAP kinase (ERK 1/2). Kind of data set: Activation (phosphorylation) of MAP kinase in cultured cerebral cortex nerve cells, Western immunoblotting. Format: cell-based. Particulars: 0.5 h; fetal rat cerebral cortex nerve cells; compound 250 μg/ml in 0.1% DMSO; 30 minutes; relative to control = 1.00; read-out: Ratio of pMAPK to MAPK. The procedure:
With regard to the compounds of the present invention, the activation of MAP kinase (ERK 1/2) was measured in accordance with a Western immunoblotting in the following manner.
Nerve cells were dispersed from cerebral cortex of a fetal rat of 17 days age, and the nerve cells were cultured for one day in a Dulbecco's modified Eagle's medium (DMEM) containing 5% fetal bovine serum. The culture medium was exchanged with a serum-free medium (B27 supplemented Neurobasal; Invitrogen), and the nerve cells were cultured at the density of 20,000 to 40,000 cells/cm^2 in a polyornithine-coated culture dish.
After three days, the compound of the present invention was added, and the culture was continued for 30 minutes. Thereafter, the cells were recovered on ice using a solution containing a phosphatase inhibitor where Tris-HCl buffer was used as a base. The protein concentration of the resulting cell extract was quantified with a BCA Protein Assay Kit (Takara Bio Co., Ltd.), and a certain amount of the protein (3 μg for the measurement of MAP kinase and 5 μg for the measurement of phosphorylated MAP kinase) was subjected to polyacrylamide gel electrophoresis. The protein was transferred from the electrophoresed gel to a PVDF membrane, and Western immunoblotting was carried out using each of an anti-MAP kinase antibody (Cell Signaling Technology) and an anti-phosphorylated MAP kinase antibody (Cell Signaling Technology) of the primary antibody.
Subsequently, the reaction with an alkaline phosphatase-labeled anti-rabbit IgG antibody (Promega) of the secondary antibody was carried out, and the enzymatic activity was allowed to develop color, to measure MAP kinase (MAPK) and the phosphorylated MAP kinase (pMAPK).
Incidentally, each of the compounds of the present invention was dissolved in 0.1% DMSO to adjust its concentration to 250 μg/ml. As to the control, 0.1% DMSO was added.
The intensity of the concentration of the bands of eletrophoresed the gel was calculated and quantified using Image J (K. K. Bioarts). The numerical values for the MAPK when using the compounds of the present invention were each divided by the numerical value for the MAPK of the control, and the numerical values for the pMAPK when using the compounds of the present invention were divided by the numerical value for the pMAPK of the control, whereby a ratio of the MAPK when using each of the compounds of the present invention to the control, and a ratio of the pMAPK when using each of the compounds of the present invention to the control were obtained. Subsequently, the ratio of the pMAPK to the control obtained was divided by the ratio of the MAPK to the control to obtain a ratio of the pMAPK to the MAPK.

Take `CCCCCCC/C=C/C(=O)N1CCN(CCN(C)C)CC1` [Compound 22, 1-((E)-2-Decenoyl)-4-[2-(dimethylamino)ethyl]piperazine]: the “Recovery Rate of 50% Reaction Threshold” value with MIA-induced OA rats amounted to 13.2%. The change in vivo at 0.3 mg/kg in data set [1] came to 29.7%.

Take `CCCCCCC/C=C/C(=O)N1CCN(C2CCCCC2)CC1` [Compound 23, 4-Cyclohexyl-1-((E)-2-decenoyl)piperazine]: the melting point was in the range of 33 to 34 °C. Further, the fold induction at 250 µg/mL in the data set on MAP kinase (ERK 1/2) came to 1.3. The change in vivo at 0.3 mg/kg in data set [1] amounted to 33%.

Compound `CCCCCCC/C=C/C(=O)N1CCN(CCc2ccccc2)CC1` [Compound 27, 1-((E)-2-Decenoyl)-4-(2-phenylethyl)piperazine] registered a melting point of 33 to 34 °C. The fold induction at 250 µg/mL in the data set on MAP kinase (ERK 1/2) stood at 1.44. Moreover, the change in vivo at 0.3 mg/kg in data set [1] turned out to be 69.1%.

On to `CCCCCCC/C=C/C(=O)N1CCN(CCC(=O)O)CC1` [Compound 21, 3-[4-((E)-2-decenoyl)piperazin-1-yl]propionic acid], for which the melting point fell in the range of 53 to 55 °C. The fold induction at 250 µg/mL with MAP kinase (ERK 1/2) amounted to 1.54. Moreover, in data set [1], the change in vivo at 0.3 mg/kg amounted to 34.8%.

On to `CCCCCCC/C=C/C(=O)N1CCN(C(C)C)CC1` [Compound 20, 1-((E)-2-Decenoyl)-4-isopropylpiperazine], for which the fold induction at 250 µg/mL with MAP kinase (ERK 1/2) came to 1.27. For the same compound, the change in vivo at 0.3 mg/kg in data set [1] turned out to be 26.9%.

On to `CCCCCCC/C=C/C(=O)N1CCN(c2ccccc2)CC1` [Compound 25, 1-((E)-2-Decenoyl)-4-phenylpiperazine], for which the “Recovery Rate of 50% Reaction Threshold” value in the data set with MIA-induced OA rats turned out to be 18.9%. The change in vivo at 0.3 mg/kg in data set [1] was found to be 55.3%.

Take `CCCCCCC/C=C/C(=O)N1CCSCC1` [Compound 18, 4-((E)-2-decenoyl)thiomorpholine]: in the data set on MAP kinase (ERK 1/2), the fold induction at 250 µg/mL was determined as 1.28. For the same compound, the change in vivo at 0.3 mg/kg in data set [1] is 48.9%.

As for `CCCCCCC/C=C/C(=O)N1CCN(Cc2ccccc2)CC1` [Compound 26, 4-Benzyl-1-((E)-2-decenoyl)piperazine], the melting point lay in the range of 62 to 63 °C. Also, in the data set on MAP kinase (ERK 1/2), the fold induction at 250 µg/mL turned out to be 1.48. For the same compound, in data set [1], the change in vivo at 0.3 mg/kg was 24.1%.

Turning to `CCCCCCC/C=C/C(=O)N1CCC(CN(CC)CC)CC1` [Compound 14, 1-((E)-2-Decenoyl)-4-diethylaminomethylpiperidine], in the data set with MAP kinase (ERK 1/2), the fold induction at 250 µg/mL came to 2.08. Besides, the change in vivo at 0.3 mg/kg in data set [1] is 26%.

Consider `CCCCCCC/C=C/C(=O)N1CCC(C)CC1` [Compound 6, 1-((E)-2-Decenoyl)-4-methylpiperidine], for which the fold induction at 250 µg/mL in the data set with MAP kinase (ERK 1/2) worked out at 1.71. Also, the change in vivo at 0.3 mg/kg in data set [1] was 33.8%.

For `CCCCCCC/C=C/C(=O)N1CCSC1` [Compound 4, 3-((E)-2-Decenoyl)thiazolidine], in the data set with MAP kinase (ERK 1/2), the fold induction at 250 µg/mL turned out to be 1.47. Besides, the change in vivo at 0.3 mg/kg in data set [1] worked out at 43.7%.

Regarding `CCCCCCC/C=C/C(=O)N1CCN(CCN2CCCCC2)CC1` [Compound 24, 1-((E)-2-Decenoyl)-4-(2-piperidin-1-ylethyl)piperazine], in the data set with MAP kinase (ERK 1/2), the fold induction at 250 µg/mL worked out at 2.58. Also, the change in vivo at 0.3 mg/kg in data set [1] amounted to 49.7%.

In the case of `CCCCCCC/C=C/C(=O)N1CCCCC1` [Compound 5, 1-((E)-2-Decenoyl)piperidine], the “Recovery Rate of 50% Reaction Threshold” value with MIA-induced OA rats came to 35.8%. In data set [1], the change in vivo at 0.3 mg/kg was 41.6%.

Turning to `CCCCCCC/C=C/C(=O)N1CCCC1` [Compound 1, 1-((E)-2-Decenoyl)pyrrolidine], the “Recovery Rate of 50% Reaction Threshold” value in the data set with MIA-induced OA rats was determined as 24.2%. The change in vivo at 0.3 mg/kg in data set [1] worked out at 58.2%.
